Data reported in article PMC9563815, “Overcoming high level adenosine-mediated immunosuppression by DZD2269, a potent and selective A2aR antagonist” (Journal of Experimental & Clinical Cancer Research : CR, 2022).

How the values were obtained:
[1] = system: monocyte-derived dendritic cells; test: DC maturation assay (CD83); format: cell-based, human; conditions: LPS-stimulated iDCs, 10 µM NECA
Description: Monocytes were isolated from human PBMCs using untouched human monocytes kit (Invitrogen, #11350D) according to the manufacturer instruction. Isolated monocytes were cultured with 100 ng/ml GM-CSF (R&D, 215-GM) and 50 ng/ml IL-4 (R&D, 204-IL) supplemented every 2 days. On day 5, 100 ng/ml LPS (Sigma, L4391) was added for 48 h to stimulate DC maturation. […] CD83 was measured as DC maturation marker by flow cytometry, and the gating strategy is shown in supplemental Fig. S2. Data were analyzed with FlowJo software.

[2] = system: CREB phosphorylation in T cells; test: pCREB signaling inhibition assay, ex vivo human whole blood T cells; format: cell-based; conditions: for IC50: Homo sapiens, T-cell, read-out: IC50, block of CREB phosphorylation in CD4+ T cells; for pCREB at the highest concentration tested: 10 µM antagonist
Description: Whole blood samples from three different healthy donors were collected and seeded in 96-well deep plates at a concentration of 90 µL/well. […] Cells were then lysed and fixed with BD Lyse/Fix Buffer (BD Bioscience, 558,049) for 15 min at 37 °C. After washed twice with DPBS (Hyclone, SH30028.02), the cells were centrifuged at 600 × g for 8 min. Cells were permeabilized by slow addition of BD Phosflow™ Perm Buffer III (BD Bioscience, 55,805) and incubated on ice for 60 min, and then resuspended in DPBS and stained with anti-CD3, anti-CD4, anti-CD8, and anti-pCREB (Ser133) antibodies for 1 h at room temperature in the dark. Cells were then washed twice and acquired on a flow cytometric (BD FACSCanto™ II) with DIVA software (BD Biosciences). The reported pCREB signal is the mean fluorescent intensity (MFI).
For ex vivo pCREB assessment, whole blood samples were collected from healthy donors, plated at 90 µL/well in 96-well deep plates, and pre-incubated with DZD2269 at 37 °C for 30 min.

A2aR = target: T1, A2aR (Homo sapiens, UniProt P29274); test: cAMP accumulation assay (HTRF) in CHO-A2aR cells; format: cell-based
T1 construct: host or cells: CHO
T1 sequence (P29274 whole entry): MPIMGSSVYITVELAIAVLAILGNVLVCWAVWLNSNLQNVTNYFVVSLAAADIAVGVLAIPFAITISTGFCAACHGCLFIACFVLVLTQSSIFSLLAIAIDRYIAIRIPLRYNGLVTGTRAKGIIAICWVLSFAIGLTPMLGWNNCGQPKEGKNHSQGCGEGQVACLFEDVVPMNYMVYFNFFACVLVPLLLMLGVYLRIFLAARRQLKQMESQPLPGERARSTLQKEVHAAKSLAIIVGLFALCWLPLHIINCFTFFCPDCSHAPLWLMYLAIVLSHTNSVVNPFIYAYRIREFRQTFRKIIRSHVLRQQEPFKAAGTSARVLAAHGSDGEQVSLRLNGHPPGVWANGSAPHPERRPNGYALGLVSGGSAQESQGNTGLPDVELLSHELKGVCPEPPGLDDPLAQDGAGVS
Description: CHO cells stably expressing human adenosine receptors (CHO-A2aR, CHO-A2bR, CHO-A1R and CHO-A3R) were purchased from GenScript. […] All CHO cells were cultured in Ham’s F12K medium (Gibco) with 10% FBS (Gibco) and RM-1 in DMEM (Gibco) medium with 10% FBS. […] All other cells were cultured without antibiotics. All cells were maintained and propagated in a humidified incubator at 37 °C, 5% CO2.
Assays were performed with HTRF cAMP kit (Cisbio, 62AM4PEJ). […] CHO-A2aR and CHO-A2bR cells were seeded in the plates at a density of 5,000 cells/well in F-12 medium containing 10% FBS. […] The dose-response curves were fitted by nonlinear regression using GraphPad Prism.

activated human PBMCs = test: PBMC cytokine release assay (IL-2, IFN-γ, TNF-α); format: cell-based; conditions: NECA at 10 µM
Description: PBMCs (2 × 10^5 cells/well) were seeded in 96 well plate pre-coated with 10 ng/ml anti-CD3 antibody and stimulated with 20 ng/ml anti-CD28 antibodies to test IFN-γ and IL-2 secretion) or stimulated with 100 ng/ml LPS for TNF-α detection. […] Cell supernatants were collected at 24 h (IL-2 and TNF-α) and 72 h (IFN-γ) post-stimulation. IL-2 (R&D, S2050), IFN-γ (R&D, SIF50) and TNF-α (eBioscience, 88-7346-88) ELISA kits were used for measurement.

[3] = system: CREB phosphorylation in CD3+ T cells; test: CREB phosphorylation assay in whole blood; format: cell-based; conditions: human whole blood, up to 100 µM
Description: Whole blood samples from three different healthy donors were collected and seeded in 96-well deep plates at a concentration of 90 µL/well. […] After washed twice with DPBS (Hyclone, SH30028.02), the cells were centrifuged at 600 × g for 8 min. […] Cells were then washed twice and acquired on a flow cytometric (BD FACSCanto™ II) with DIVA software (BD Biosciences). The reported pCREB signal is the mean fluorescent intensity (MFI).

[4] = parameters: method as in PMID 24835328, PMID 32685154; conditions: cited from earlier work
Pan02 tumors = test: Pan02 pancreatic subcutaneous syngeneic model; format: in vivo, C57BL/6 mice; conditions: oxaliplatin 10 mg/kg alone or DZD2269 3 mg/kg alone
Description: B16F10, RM-1 and Pan02 cells were harvested and suspended in DPBS. Single-cell suspensions of greater than 90% viability were used for injection. Tumor cells were injected subcutaneously in the left flank of the C57BL/6 mice with a total cell number of 2 × 10^6 (B16F10 and RM-1) and 1 × 10^7 cells (Pan02) in a volume of 0.1 ml. Tumor-bearing mice were randomized into treatment groups when the mean tumor volume reached 40 to 100 mm^3. Mice were then treated with vehicle or compounds starting the day after randomization, and tumor volume and body weight were measured twice a week. Tumor growth inhibition from the onset of treatment was assessed by comparing the mean change in tumor volume between control and treatment groups and expressed as tumor growth inhibition. Tumor nodules were measured two-dimensionally with calipers, and tumor volumes were calculated using the following formula: tumor volume (TV) = (length × width^2) × 0.52.
Tumor tissues were collected at the end of the study. […] Positive cell percentage of stained IHC slides was quantified with a HALO image analysis platform (Indica Labs).
Fig. 4 DZD2269 enhances the efficacy of radiotherapy (RT) in syngeneic mouse in vivo models. […] (A) IFN-γ in supernatant was measured 72 h after co-culture. (B) IL-2 in supernatant was measured 24 h after co-culture. […] Infiltrated CD8 + and CD4 + T cells were determined by IHC. […]

With `Cc1c(C#N)cccc1-c1cc(-c2cn(Cc3cccc(C(C)(C)O)n3)nn2)nc(N)n1` [AB928] the “Relief of NECA inhibition of DC maturation (CD83)” value [1] was “did not relieve the inhibitory effect”, the IC50 [2] was 0.13 µM and the “Concentration that brings pCREB to the control level” value ([2]; human whole blood, 10 µM NECA) was “over 1,000 nM”. It also gave an IC50 (A2aR; stimulated with 0.1 µM NECA) of 0.0041 ± 0.0012 µM, an IC50 (A2aR; stimulated with 1 µM adenosine) of 0.0034 ± 0.00092 µM and an IC50 (A2aR; stimulated with 10 µM NECA) of 0.408 ± 0.025 µM. The IC50 (A2aR; stimulated with 100 µM adenosine) was 0.463 ± 0.09 µM.

For `Cc1cc(-c2nnc(N)nc2-c2ccc(F)cc2)cc(Cl)n1` [AZD4635], the “pCREB at the highest concentration tested” value ([2]; human whole blood, 10 µM NECA) was “failed to bring pCREB to the baseline (control) level” and the IC50 [2] was over 1 µM.

With `Cc1ccc(-c2nc(N)nc3c2nnn3Cc2cccc(CO[C@H]3CCOC3)n2)o1` [CPI-444] the “pCREB at the highest concentration tested” value ([2]; human whole blood, 10 µM NECA) was “failed to bring pCREB to the baseline (control) level” and the IC50 [2] was over 1 µM.

For `CCNC(=O)[C@H]1O[C@@H](n2cnc3c(N)ncnc32)[C@H](O)[C@@H]1O` [NECA, 5′-N-ethylcarboxamide adenosine], the “IL-2, IFN-γ and TNF-α production” value (activated human PBMCs) was “completely blocked” and the “CREB phosphorylation in CD3+ T cells” value [3] was “stimulated CREB phosphorylation in a concentration dependent manner”.

For `Nc1ncnc2c1ncn2[C@@H]1O[C@H](CO)[C@@H](O)[C@H]1O` [adenosine], the “Biological half-life in human blood” value [4] is listed as “less than 10 s”.

In the case of `O=C1[O][Pt]2([NH][C@@H]3CCCC[C@H]3[NH]2)[O]C1=O` [oxaliplatin, Oxaliplatin], the “Anti-tumor effect, single agent” value (Pan02 tumors) is reported as “showed some anti-tumor effect”.
